Test results reported in publication PMC6538953, “Metal Ions Activate the Human Taste Receptor TAS2R7” (Chemical Senses, 2019).
Numbering of substitutions follows the chain as printed. Where two headings read alike, the source gives them in different places.

Columns and labels:
human TAS2R7 = target: T1, human TAS2R7 (Homo sapiens, UniProt Q9NYW3); assay: Calcium mobilization assay, HEK293 cells transfected with TAS2R7 and Gα16-gust44; format: cell-based
T1 construct: first 45 residues of rat somatostatin receptor 3 (signal peptide) (N); expressed in transfected cells; host or cells: HEK293 (PEAKrapid, ATCC CRL-2828)
T1 sequence (Q9NYW3 1-318): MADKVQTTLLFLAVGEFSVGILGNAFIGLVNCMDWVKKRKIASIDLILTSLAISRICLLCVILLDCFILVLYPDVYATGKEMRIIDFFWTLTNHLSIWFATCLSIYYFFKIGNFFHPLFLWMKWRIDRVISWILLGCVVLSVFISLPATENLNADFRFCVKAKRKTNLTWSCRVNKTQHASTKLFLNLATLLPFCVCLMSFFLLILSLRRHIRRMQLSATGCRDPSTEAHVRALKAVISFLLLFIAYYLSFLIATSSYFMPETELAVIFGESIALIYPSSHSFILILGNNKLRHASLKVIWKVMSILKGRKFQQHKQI
Excerpt: (§1) The coding sequences of human TAS2Rs were amplified from human genomic DNA, then subcloned into pcDNA3.1(+) vector, with the herpes simplex virus glycoprotein D epitope (HSV) at the C-terminal and a signal peptide consisting of the first 45 amino acid residues of the rat somatostatin receptor 3 at the N-terminal, essentially as described previously ([Bufe et al. 2002]). Point mutations in human TAS2R7 (NCBI Reference Sequence: NP_076408.1) were constructed by site-directed mutagenesis. All the constructs were confirmed by Sanger sequencing.
All tested compounds were purchased from Sigma–Aldrich, with the exception of diphenidol hydrochloride (Reagent World) and L-praziquantel (manufactured by Shaoxing Pharmaceutical Co. Ltd.). All the metal ions were dissolved in the assay solution (130 mM NaCl, 5 mM KCl, 2 mM CaCl2, and 10 mM glucose; pH 7.4) unless specified otherwise, and the bitter compounds (diphenidol, quinine, and chlorphenamine) were dissolved first in dimethyl sulfoxide (DMSO) as stock solution and then diluted with the assay solution; the final DMSO concentration was below 0.5%, with the exception of cromolyn, which is dissolved in the assay solution directly. For our initial screening (Table 1), Hanks’ balanced salt solution (HBSS, ThermoFisher, catalog no. 14025134) supplemented with 10 mM hydroxyethyl piperazineethanesulfonic acid (HEPES) were used as the assay buffer.
Human embryonic kidney 293 (PEAKrapid, ATCC # CRL-2828) cells were cultured in Opti-MEM medium with 4% fetal bovine serum. One day before transfection, cells were seeded on a 96-well plate at a density of 25 000 per well. Cells were then transiently transfected with a TAS2R construct (0.1 µg/well) along with a G protein Gα16-gust44 (0.1 µg/well) construct by Lipofectamine 2000 (0.5 µl/well). For controls, only Gα16-gust44 was used (mock transfection). Twenty-four hours after transfection, cells were washed with HBSS including 10 mM HEPES and loaded with Fluo-4 in the dark for 1 h. After incubation, cells were washed 2 times with HBSS (including 10 mM HEPES), incubated in the dark for another 30 min, and then washed with assay solution once more before running the assay using a FlexStation III reader. Relative fluorescence units (excitation at 494 nm, emission at 516 nm, and auto cutoff at 515 nm) were read every 2 s for 2 min. Calcium mobilization traces were recorded.
Calcium mobilization traces were raw data obtained from single wells. Changes in fluorescence (ΔF) were calculated as the peak fluorescence minus baseline fluorescence ([Lei et al. 2015]). The calcium mobilization was quantified as the percentage of change (ΔF) relative to baseline (F). […] Calcium mobilization traces and bar graphs along with dose-dependent plots were all generated by GraphPad Prism 7. Analysis of variance with Dunnett’s multiple comparisons test was used for statistical analysis. *P < 0.05.
To determine whether a TAS2R responds to metal ions, we expressed all 25 human bitter receptors individually in HEK293 cells (PEAKrapid) by transient transfection of a TAS2R along with a coupling chimeric G protein, Gα16-gust44. All TAS2Rs were cloned from human genomic DNA. Activation of human TAS2Rs was monitored by the calcium mobilization assay ([Lei et al. 2015]). We tested these receptors individually for their responses toward metal ions: ZnSO4 (20 mM), CuSO4 (20 mM), and MgCl2 (20 mM) (Table 1, Figure 1A). […] To determine the breadth of tuning of TAS2R7 toward metal ions, we also tested MnCl2 (20 mM), Al2(SO4)3 ([…]), and CaCl2 (20 mM) (Figure 1B).

[1] = target: T2, human TAS2R7 E271^7.39 to leucine mutant (Homo sapiens, UniProt Q9NYW3, E271L); assay: Calcium mobilization assay, TAS2R7 mutant E271L; format: cell-based; conditions: 20 mM metal ions except 0.16 mM Al2(SO4)3; cromolyn 10 mM; Figure 6C
T2 construct: signal peptide: first 45 amino acid residues of rat somatostatin receptor 3 (N); expressed in transfected cells; host or cells: HEK293 PEAKrapid (ATCC CRL-2828), transient, co-transfected with Gα16-gust44
T2 sequence (Q9NYW3 1-318 E271L): T1 sequence (Q9NYW3 1-318) with E271L
Excerpt: as §1
Human embryonic kidney 293 (PEAKrapid, ATCC # CRL-2828) cells were cultured in Opti-MEM medium with 4% fetal bovine serum. […] After incubation, cells were washed 2 times with HBSS (including 10 mM HEPES), incubated in the dark for another 30 min, and then washed with assay solution once more before running the assay using a FlexStation III reader. Relative fluorescence units (excitation at 494 nm, emission at 516 nm, and auto cutoff at 515 nm) were read every 2 s for 2 min. Calcium mobilization traces were recorded.
Calcium mobilization traces were raw data obtained from single wells. Changes in fluorescence (ΔF) were calculated as the peak fluorescence minus baseline fluorescence ([Lei et al. 2015]). The calcium mobilization was quantified as the percentage of change (ΔF) relative to baseline (F). […]

For `O=C(O)c1cc(=O)c2c(OCC(O)COc3cccc4oc(C(=O)O)cc(=O)c34)cccc2o1` [cromolyn, reference compound], the “Response of TAS2R7-transfected cells at higher dose” value (human TAS2R7; 10 mM) was “robust response”, the EC50 (human TAS2R7; Figure 4B, read-out: EC50, TAS2R7, dose-response analysis) was 5.9 mM and the EC50 (human TAS2R7; assay solution containing calcium, Figures 3A, 4C, read-out: EC50, TAS2R7, in the presence of calcium) was 6.67 mM. The EC50 (human TAS2R7; assay solution containing no calcium, Figures 3A, 4C, read-out: EC50, TAS2R7, in the absence of calcium) was 5.22 mM, the “Maximal response of TAS2R7 in the absence versus presence of calcium” value (human TAS2R7; assay solution without calcium compared with calcium) was “smaller” and the “Compounds triggering detectable responses in cells transfected with TAS2R7” value (human TAS2R7; at the concentrations reported previously (Meyerhof et al. 2010), Figure 4A) was “none”. For the same compound, the “Response of E271 to leucine mutant receptor” value [1] was “slightly reduced responses”.
